Measurements as given in patent publication US20240043386A1, “Modulators of the Cystic Fibrosis Transmembrane Conductance Regulator Protein and Methods of Use” (AbbVie Global Enterprises Ltd., priority 2021, published 2024).
Like-named read-outs stand apart in the source and are kept apart here.

Experiments:
F508delCFTR = biological target: T1, F508delCFTR (Homo sapiens, UniProt P13569, DEL508-508); assay: Cell Surface Expression-Horse Radish Peroxidase (CSE-HRP) assay in CFBE41o-F508delCFTR-HRP cells; type: cell-based; conditions: for EC50: CFBE41o-F508delCFTR-HRP cells, 18-24 hours at 33° C., luminescence; for Maximum % activity (without co-corrector): normalized to on-plate positive control corrector (2 μM)
T1 construct: expressed in transfected cells; host or cells: CFBE41o- human lung-derived epithelial cell line, doxycycline-inducible expression
T1 sequence (P13569 with tags, fused parts or gaps DEL508-508): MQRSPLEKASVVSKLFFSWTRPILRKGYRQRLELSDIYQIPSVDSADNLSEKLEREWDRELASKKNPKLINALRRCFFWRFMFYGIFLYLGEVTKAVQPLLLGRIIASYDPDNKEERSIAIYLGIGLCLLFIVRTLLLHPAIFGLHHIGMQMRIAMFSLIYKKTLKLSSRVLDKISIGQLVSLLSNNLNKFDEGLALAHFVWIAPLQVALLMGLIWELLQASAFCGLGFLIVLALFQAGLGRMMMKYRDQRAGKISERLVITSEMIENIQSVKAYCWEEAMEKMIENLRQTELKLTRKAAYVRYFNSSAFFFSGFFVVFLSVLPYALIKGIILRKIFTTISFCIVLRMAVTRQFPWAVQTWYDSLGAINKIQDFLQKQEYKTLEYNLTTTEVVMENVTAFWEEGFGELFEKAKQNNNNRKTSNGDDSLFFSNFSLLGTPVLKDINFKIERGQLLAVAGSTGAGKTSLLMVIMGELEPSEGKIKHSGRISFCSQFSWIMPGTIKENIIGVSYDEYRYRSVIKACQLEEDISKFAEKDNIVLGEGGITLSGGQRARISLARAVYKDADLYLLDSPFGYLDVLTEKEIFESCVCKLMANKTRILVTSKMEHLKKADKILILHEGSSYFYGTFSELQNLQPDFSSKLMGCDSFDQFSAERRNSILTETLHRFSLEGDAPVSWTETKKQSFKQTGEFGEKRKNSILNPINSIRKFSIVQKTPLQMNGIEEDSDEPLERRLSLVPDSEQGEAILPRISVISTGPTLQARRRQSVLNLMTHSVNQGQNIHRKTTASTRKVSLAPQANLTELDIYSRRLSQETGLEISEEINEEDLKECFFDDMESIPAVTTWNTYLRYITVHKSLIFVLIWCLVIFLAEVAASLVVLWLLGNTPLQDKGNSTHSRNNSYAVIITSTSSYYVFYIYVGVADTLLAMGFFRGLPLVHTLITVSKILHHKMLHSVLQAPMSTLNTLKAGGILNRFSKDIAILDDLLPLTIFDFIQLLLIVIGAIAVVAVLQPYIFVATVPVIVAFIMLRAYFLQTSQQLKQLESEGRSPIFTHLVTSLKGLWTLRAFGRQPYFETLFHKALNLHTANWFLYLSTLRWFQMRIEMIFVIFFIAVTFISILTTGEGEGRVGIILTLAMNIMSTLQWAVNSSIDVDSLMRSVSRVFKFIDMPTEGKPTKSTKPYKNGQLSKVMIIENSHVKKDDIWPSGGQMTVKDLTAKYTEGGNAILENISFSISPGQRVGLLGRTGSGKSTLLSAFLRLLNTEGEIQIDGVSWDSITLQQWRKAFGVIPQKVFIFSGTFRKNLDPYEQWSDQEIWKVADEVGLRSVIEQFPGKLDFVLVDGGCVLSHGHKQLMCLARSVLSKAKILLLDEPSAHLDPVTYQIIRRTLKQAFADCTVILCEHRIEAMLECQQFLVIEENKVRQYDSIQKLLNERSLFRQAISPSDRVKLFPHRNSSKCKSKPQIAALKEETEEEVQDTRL
Protocol: A cellular assay for measuring the F508delCFTR cell surface expression after correction with test compounds either without or with a co-corrector (2 μM of 3-[(2R,4R)-4-({[1-(2,2-difluoro-1,3-benzodioxol-5-yl)cyclopropyl]carbonyl}amino)-7-methoxy-3,4-dihydro-2H-chromen-2-yl]benzoic acid), was developed in human lung derived epithelial cell line (CFBE4lo-) (Veit G et al, (2012) Mol Biol Cell. 23(21): 4188-4202). The development was achieved by expressing the F508delCFTR mutation along with a horseradish peroxidase (HRP) in the fourth exofacial loop, and then measuring the HRP activity using luminescence readout from these cells, CFBE4lo-F508delCFTR-HRP, that were incubated overnight with the test corrector compounds, either without or with the co-corrector. For this primary assay, the CFBE4lo-F508delCFTR-HRP cells were plated in 384-well plates (Greiner Bio-one; Cat 781080) at 4,000 cells/well along with 0.5 μg/mL doxycycline to induce the F508delCFTR-RP expression and further incubated at 37° C., 5% CO2 for 68-72 hours. The test compounds were then added either without or with a co-corrector at the required concentrations and further incubated for 18-24 hours at 33° C. The highest concentration tested was 20 μM or 30 μM (GI-1 to GIII-36) with an 8-point concentration response curve using a 3-fold dilution in both the test compound without or with the co-corrector. Three replicate plates were run to determine one EC50. All plates contained negative controls (dimethyl sulfoxide, DMSO) and positive control (2 μM or 3 μM (GI-1 to GIII-36) of 3-[(2R,4R)-4-({[1-(2,2-difluoro-1,3-benzodioxol-5-yl)cyclopropyl]carbonyl}amino)-7-methoxy-3,4-dihydro-2H-chromen-2-yl]benzoic acid) as well as on-plate concentration response of the positive control. Post incubation, the plates were washed 5× times with Dulbecco's phosphate buffered saline (DPBS), followed by the addition of the HRP substrate, luminol (50 μL), and measuring the HRP activity using luminescence readout on EnVision® Multilabel Plate Reader (Perkin Elmer; product number 2104-0010). The raw counts from the experiment were analyzed using Accelrys® Assay Explorer v3.3.
Z′ greater than 0.5 was used as passing quality control criteria for the plates. The Z′ is defined as:
1−[3*SDPositive Control+3*SDNegative Control/Absolute (MeanPositive Control−MeanNegative Control)]
The % activity measured at each of the 8 test concentrations of the test compound added either without or with a co-corrector (2 μM or 3 μM (GI-1 to GIII-36) of 3-[(2R,4R)-4-({[1-(2,2-difluoro-1,3-benzodioxol-5-yl)cyclopropyl]carbonyl}amino)-7-methoxy-3,4-dihydro-2H-chromen-2-yl]benzoic acid) was normalized to the on-plate positive control using the following formulae:
% activity (Test compound without co-corrector)=[(test compound without co-corrector response−DMSO response)/(positive control response−DMSO response)]*100
% activity (Test compound with co-corrector)=[(test compound with co-corrector response−DMSO response)/(positive control response−DMSO response)]*100
The maximum % activity achieved for the test compound either without or with a co-corrector at any tested concentration is presented in Table 3 along with the respective EC50's calculated using the following general sigmoidal curve with variable Hill slope equation (described as Model 42 in the Accelrys® Assay Explorer v3.3 software):
General sigmoidal curve with concentration, response, top, bottom, EC50 and Hill slope. This model describes a sigmoidal curve with an adjustable baseline, a. The equation can be used to fit curves where response is either increasing or decreasing with respect to the independent variable, “x”.

F508del/F508del CFTR = biological target: T2, F508del/F508del CFTR (Homo sapiens, UniProt P13569, DEL508-508); assay: Trans-Epithelial Current Clamp (TECC) assay using primary human bronchial epithelial cells; type: cell-based; conditions: for Emax (% Dual): maximum percent activity relative to positive control (co-corrector 0.15 μM + potentiator 0.45 μM = 100%), primary hBE cells F508del/F508del; for EC50: primary hBE cells homozygous F508del/F508del, test C2 corrector with co-corrector and potentiator, 18-24 hours at 37° C., equivalent CFTR current (IEQ)/AUC
T2 construct: cells isolated from CF patients with the homozygous mutation; endogenous in cells; host or cells: primary human bronchial epithelial (hBE) cells from CF patients homozygous for F508del
T2 sequence (P13569 with tags, fused parts or gaps DEL508-508): as above
Description: A cell-based assay was developed using the primary human bronchial epithelial cells (hBE cells) with F508del/F508del CFTR and other mutations.
Primary human bronchial epithelial (hBE) cells from CFTR patients with homozygous F508del/F508del mutation were expanded from 1×10^6 to 250×10^6 cells (Neuberger, T et al., 2011, Methods Mol Biol 741:39-54). For this purpose, cells isolated from CF patients with the homozygous mutation, procured from the CF center tissue procurement and cell culture core at the Marsico Lung Institute at UNC (Randell), the Cystic Fibrosis translational research center at McGill University (University), and Rosalind Franklin University Medical School (RFUMS) were seeded onto 24 well Corning (Cat #3378) filter plates that were coated with 3T3 conditioned media and grown at an air-liquid interface for 35 days using an Ultroser® G supplemented differentiation media. All the primary human bronchial epithelial cells were collected in accordance with institutional review board approval protocols. Apical surface mucus was removed 72 hours before the experiment by incubating the apical surface of the cells for 30 minutes with 3 mM dithiothreitol (DTT) prepared in Dulbecco's phosphate buffered saline (DPBS) with Ca^2+ and Mg^2+. This was followed with aspiration of the mucus from the apical surface along with DPBS. The apical surface was re-washed with phosphate buffered saline (PBS) incubated for 30 minutes followed with aspiration. These hBE cells were then incubated with the desired concentrations of the test C2 corrector compounds along with co-corrector, 4-[(2R,4R)-4-({[1-(2,2-difluoro-1,3-benzodioxol-5-yl)cyclopropyl]carbonyl}amino)-7-(difluoromethoxy)-3,4-dihydro-2H-chromen-2-yl]benzoic acid and potentiator, (5-{3-amino-5-[4-(trifluoromethoxy)benzene-1-sulfonyl]pyridin-2-yl}-1,3,4-oxadiazol-2-yl)methanol, for 18-24 hours at 37° C., 5% CO2. The desired concentrations of the correctors and potentiator compounds were prepared from the 10 mM stocks in differentiation media and were always applied on the basolateral side of the epithelial cells. We also used an assay format where a fixed concentration of potentiator was added chronically along with the corrector compounds. This chronic treatment with the potentiator helped eliminate any interaction that might happen with CFTR modulators (correctors and potentiators) and thereby determined the true efficacy of the modulator combinations reflective of clinical relevance.
The assay uses a Transepithelial Current Clamp (TECC) (Vu, C B et al., 2017; J Med Chem 60:458-473) instrument that can measure the functionality of the mutated channel by measuring the equivalent CFTR current (IEQ) generated by the polarized primary epithelial cells. We used a TECC-24 with a 24-channel electrode manifold allowing for the simultaneous measurement of the transepithelial voltage, VT, and transepithelial resistance, RT, under current clamp conditions, from 24 filters using a 24 well Costar filter plate. The design of the filters in the 24 well filter plates was exactly the same as the design of an individual Transwell filter used in the classical Ussing Chamber with a surface area of 0.33 cm^2. Each measured VT values were corrected for the electrode offset potential measured using buffer alone in a separate plate, and each measured RT values were then corrected for the combined solution series and empty filter resistances. The corrected VT and RT values were then used to calculate the equivalent current, IEQ using Ohm's law (IEQ=VT/RT). The area under the curve (AUC) for the time period between the forskolin peak IEQ response and at the time of bumetanide addition was also calculated using a one-third trapezoid method, in addition to calculating the IEQ. The assay was run in a 24-well format and all 24-wells were measured at the same time point giving a higher throughput for this assay. […]

[1] = with co-corrector (2 μM), read-out: EC50 (with co-corrector)
[2] = without co-corrector, read-out: EC50 (without co-corrector)

Row | EC50 (F508delCFTR; [1]) [nM] | EC50 (F508delCFTR; [2]) [nM] | Emax (% Dual) (F508del/F508del CFTR) | EC50 (F508del/F508del CFTR) [nM] | Maximum % activity (without co-corrector) (F508delCFTR; without co-corrector) [%] | SMILES
1 |  |  | 342 | 33.7 |  | COc1ccc(C)cc1[C@]1(C(=O)NS(=O)(=O)c2cccc3nc(C)ccc23)C[C@@H]1c1cnc(C(C)C)cn1 (single isomer, unassigned) [Example 64]
2 |  |  | 253 | 15.2 |  | CCOc1cnc([C@H]2C[C@@]2(C(=O)NS(=O)(=O)c2cccc3nc(C)ccc23)c2cc(C)ccc2OC)cn1 (single isomer, unassigned) [Example 66]
3 |  |  | 288 | 11.3 |  | CCOc1ncccc1[C@H]1C[C@@]1(C(=O)NS(=O)(=O)c1cccc2nc(C)ccc12)c1cc(C)ccc1OC (single isomer, unassigned) [Example 71]
4 |  |  | 194 | 804 |  | COc1ccc(C)cc1[C@@]1(C(=O)NS(=O)(=O)c2cccc3nc(C)ccc23)CC1c1ccc(C)nc1 (stereo in doubt) [Example 10, (1R,2S)-1-(2-methoxy-5-methylphenyl)-2-(6-methylpyridin-3-yl)-N-(2-methylquinoline-5-sulfonyl)cyclopropane-1-carboxamide]
5 |  |  | 246 | 33.2 |  | COc1ccc(C)cc1[C@]1(C(=O)NS(=O)(=O)c2cccc3nc(C)ccc23)C[C@@H]1c1cnc(OC)c(C)n1 [Example 83, (1S,2S)-1-(2-methoxy-5-methylphenyl)-2-(5-methoxy-6-methylpyrazin-2-yl)-N-(2-methylquinoline-5-sulfonyl)cyclopropane-1-carboxamide]

More lines, now with the values behind:

Row | SMILES | EC50 (F508delCFTR; [1]) [nM] | EC50 (F508delCFTR; [2]) [nM] | Emax (% Dual) (F508del/F508del CFTR) | EC50 (F508del/F508del CFTR) [nM] | Maximum % activity (without co-corrector) (F508delCFTR; without co-corrector) [%]
6 | COc1ccc(C)cc1[C@@]1(C(=O)NS(=O)(=O)c2cccc3nc(C)ccc23)C[C@H]1c1ccccc1 (racemic) [Example 1, rac-(1r,2s)-1-(2-methoxy-5-methylphenyl)-N-(2-methylquinoline-5-sulfonyl)-2-phenylcyclopropane-1-carboxamide] | 1430 | 2840 | 389 | 5 | 
7 | COc1ccc(C)cc1[C@@]1(C(=O)NS(=O)(=O)c2cccc3nc(C)ccc23)C[C@H]1c1ccc(C)cc1 (racemic) [Example 4, rac-(1r,2s)-1-(2-methoxy-5-methylphenyl)-2-(4-methylphenyl)-N-(2-methylquinoline-5-sulfonyl)cyclopropane-1-carboxamide] | 421 | 489 | 417 | 1.5 | 944
8 | COc1ccc(C)cc1C1(C(=O)NS(=O)(=O)c2cccc3nc(C)ccc23)CC1c1ccc(C(F)(F)F)cc1 (racemic) [Example 5, rac-(1r,2s)-1-(2-methoxy-5-methylphenyl)-N-(2-methylquinoline-5-sulfonyl)-2-[4-(trifluoromethyl)phenyl]cyclopropane-1-carboxamide] | 187 | 306 | 253 | 3.5 | 741
9 | COc1ccc(C)cc1[C@@]1(C(=O)NS(=O)(=O)c2cccc3nc(C)ccc23)C[C@H]1c1cccc(F)c1 (racemic) [Example 8, rac-(1r,2s)-2-(3-fluorophenyl)-1-(2-methoxy-5-methylphenyl)-N-(2-methylquinoline-5-sulfonyl)cyclopropane-1-carboxamide] | 504 | 844 | 429 | 1.4 | 
10 | COc1ccc([C@@H]2C[C@]2(C(=O)NS(=O)(=O)c2cccc3nc(C)ccc23)c2cc(C)ccc2OC)cc1 (racemic) [Example 9, rac-(1r,2s)-1-(2-methoxy-5-methylphenyl)-2-(4-methoxyphenyl)-N-(2-methylquinoline-5-sulfonyl)cyclopropane-1-carboxamide] |  | 1670 | 381 | 1.1 | 
11 | COc1ccc([C@H]2C[C@@]2(C(=O)NS(=O)(=O)c2cccc3nc(C)ccc23)c2cc(C)ccc2OC)c(OC)n1 (single isomer, unassigned) [Example 94] |  |  | 246 | 7 | 
12 | COc1ccc(C)cc1[C@]1(C(=O)NS(=O)(=O)c2cccc3nc(C)ccc23)C[C@@H]1c1cnc(OC)c(OC)c1 [Example 104, (1S,2R)-2-(5,6-dimethoxypyridin-3-yl)-1-(2-methoxy-5-methylphenyl)-N-(2-methylquinoline-5-sulfonyl)cyclopropane-1-carboxamide] |  |  | 350 | 3.8 | 
